Test results published in patent publication US20250332178A1, “METHODS OF TREATING MYCOBACTERIAL INFECTIONS USING TETRACYCLINE COMPOUNDS” (priority 2018, published 2025).
In brackets after ≈: the same amount, converted by molar mass. Like-named read-outs stand apart in the source and are kept apart here.

Columns and labels:
Assay type in all cases: cell-based
M. chelonae = test: MIC (CLSI broth dilution), RGM isolates; settings: Mycobacteroides chelonae, read-out: MIC
M. immunogenum group = test: MIC (CLSI broth dilution), RGM isolates; settings: M. immunogenum, read-out: MIC
[1] = system: H37Rv strain of Mycobacterium tuberculosis; test: MIC against H37Rv strain; settings: Mycobacterium tuberculosis, H37RV; read-out: MIC
Method: The purpose of this study was to test activity of selected tetracycline compounds against the H37Rv strain of Mycobacterium tuberculosis. Minimum inhibitory concentrations (MIC) of different tetracycline compounds against H37Rv strain were determined and are shown in Table 8.

Question: Which results are given for `NC[C@H]1O[C@H](O[C@H]2[C@H](O)[C@@H](O[C@H]3O[C@H](CO)[C@@H](O)[C@H](N)[C@H]3O)[C@H](N)C[C@@H]2N)[C@H](N)C[C@@H]1O` [TOB, tobramycin]?
Answer: MIC (M. chelonae; isolate 18, M. chelonae): ≤ 2 µg/mL; MIC (M. chelonae; isolate 19, M. chelonae): ≤ 2 µg/mL; MIC (M. chelonae; isolate 20, M. chelonae): ≤ 2 µg/mL; MIC (M. chelonae; isolate 21, M. chelonae): ≤ 2 µg/mL; MIC (M. chelonae; isolate 22, M. chelonae): ≤ 2 µg/mL; MIC (M. immunogenum group; isolate 36, M. immunogenum group): 8 µg/mL (≈ 17.1 µM); MIC (M. immunogenum group; isolate 37, M. immunogenum group): > 8 µg/mL; MIC (M. immunogenum group; isolate 38, M. immunogenum group): > 8 µg/mL

Question: `CN(C)c1cc(CNc2ccccc2)c(O)c2c1C[C@H]1C[C@H]3[C@H](N(C)C)C(O)=C(C(N)=O)C(=O)[C@@]3(O)C(O)=C1C2=O` [Compound 82] was tested. Which MIC [1] did it give?
Answer: Its MIC is over 32 µg/mL.

Question: Which MIC [1] does the source give for `Cc1csc(NCc2cc(N(C)C)c3c(c2O)C(=O)C2=C(O)[C@]4(O)C(=O)C(C(N)=O)=C(O)C(N(C)C)[C@@H]4C[C@@H]2C3)n1` (stereo partly shown) [Compound 62] here?
Answer: The MIC was over 32 µg/mL.

Question: For `C[C@H]1c2ccc(CN3CCCCC3)c(O)c2C(=O)C2=C(O)[C@]3(O)C(=O)C(C(N)=O)=C(O)[C@@H](N(C)C)[C@@H]3[C@@H](O)[C@@H]21` [Compound 72], which MIC [1] is on record?
Answer: The MIC was 32 µg/mL (≈ 59.1 µM).

Question: How did the MIC [1] turn out when `CC(C)CNCc1cc(N(C)C)c2c(c1O)C(=O)C1=C(O)[C@]3(O)C(=O)C(C(N)=O)=C(O)[C@H](N(C)C)[C@@H]3C[C@@H]1C2` [Compound 70] was run?
Answer: Its MIC is 16 µg/mL (≈ 29.5 µM).

Question: With `CN(C)c1cc(CNC(=O)C2CCCN2)c(O)c2c1C[C@H]1C[C@H]3C(N(C)C)C(O)=C(C(N)=O)C(=O)[C@@]3(O)C(O)=C1C2=O` (stereo partly shown) [Compound 58] as the compound, how does the MIC [1] read?
Answer: Its MIC is 16 µg/mL (≈ 27.4 µM).

Question: `CCc1cc(CNC(=O)c2cccnc2)c(O)c2c1C[C@H]1C[C@H]3[C@H](N(C)C)C(O)=C(C(N)=O)C(=O)[C@@]3(O)C(O)=C1C2=O` [Compound 1] was tested. Which MIC [1] did it give?
Answer: Its MIC is over 32 µg/mL.

Question: How did the MIC [1] turn out when `CC(N)CNCc1cc(N(C)C)c2c(c1O)C(=O)C1=C(O)[C@]3(O)C(=O)C(C(N)=O)=C(O)C(N(C)C)[C@@H]3C[C@@H]1C2` (stereo partly shown) [Compound 51] was run?
Answer: The MIC was over 32 µg/mL.

Question: For `CN(C)c1cc(CNC(=O)c2ccno2)c(O)c2c1C[C@H]1C[C@H]3C(N(C)C)C(O)=C(C(N)=O)C(=O)[C@@]3(O)C(O)=C1C2=O` (stereo partly shown) [Compound 52], which MIC [1] is on record?
Answer: Its MIC is 16 µg/mL (≈ 27.5 µM).

Question: Which MIC [1] does the source give for `CN(C)c1cc(CNCC2CC2)c(O)c2c1C[C@H]1C[C@H]3[C@H](N(C)C)C(O)=C(C(N)=O)C(=O)[C@@]3(O)C(O)=C1C2=O` [Compound 65] here?
Answer: The MIC was 16 µg/mL (≈ 29.6 µM).

Question: With `CN(C)C1C(O)=C(C(N)=O)C(=O)[C@@]2(O)C(O)=C3C(=O)c4c(O)c(CNC(=O)C5CC5)cc(-c5ccc(C(C)(C)C)cc5)c4C[C@H]3C[C@@H]12` (stereo partly shown) [Compound 31] as the compound, how does the MIC [1] read?
Answer: The MIC was over 32 µg/mL.

Question: With `CCCCNCc1cc(N(C)C)c2c(c1O)C(=O)C1=C(O)[C@]3(O)C(=O)C(C(N)=O)=C(O)[C@H](N(C)C)[C@@H]3C[C@@H]1C2` [Compound 15] as the compound, how does the MIC [1] read?
Answer: Its MIC is 32 µg/mL (≈ 59 µM).

Question: With `CN(C)c1cc(CNC(=O)C(Cc2ccccc2)N(C)C)c(O)c2c1C[C@H]1C[C@H]3[C@@H](N(C)C)C(O)=C(C(N)=O)C(=O)[C@@]3(O)C(O)=C1C2=O` (stereo partly shown) [Compound 48] as the compound, how does the MIC [1] read?
Answer: Its MIC is over 32 µg/mL.

Question: How did the MIC [1] turn out when `CN(C)c1cc(CNC(=O)Nc2ccc3c(c2)OCO3)c(O)c2c1C[C@H]1C[C@H]3[C@H](N(C)C)C(O)=C(C(N)=O)C(=O)[C@@]3(O)C(O)=C1C2=O` [Compound 24] was run?
Answer: The MIC was over 32 µg/mL.

Question: `CN(C)c1cc(CNC2CCCC2)c(O)c2c1C[C@H]1C[C@H]3C(N(C)C)C(O)=C(C(N)=O)C(=O)[C@@]3(O)C(O)=C1C2=O` (stereo partly shown) [Compound 43] was tested. Which MIC [1] did it give?
Answer: Its MIC is over 32 µg/mL.
